Test results as given in patent US20110311643A1, “SUPPLEMENTED MATRICES FOR THE REPAIR OF BONE FRACTURES” (Kuros Biosurgery AG, priority 2005, published 2011).
Marks after values point to notes of the source that are not given here.

How the values were obtained:
[1] = Stability of PTH / TGPTH in buffer (spiked samples, direct ELISA); format: physicochemical; conditions: 0.5 μg/mL; 37° C.; distilled water, phosphate buffer saline, tris-buffer saline
Protocol: For the first release assay a fibrin matrix of 50 μl with 0.1 mg PTH or TGPTH per ml fibrin matrix was incubated at 37° C. in 10 ml buffer. Therefore, the concentration of PTH or TGPTH in the buffer in case of a total release would be 0.5 μg PTH or TGPTH/mL fibrin matrix. In order to compare the stability of PTH or TGPTH during the assay, samples of PTH or TGPTH were diluted directly in the buffer to a concentration of 0.5 μg PTH or TGPTH/mL fibrin matrix. Different buffers were tested: distilled water, phosphate buffer saline, tris-buffer saline.
Aliquots were taken at days 0, 1, 2, 4 and 6 and analysed by direct ELISA. […] Therefore, no conclusion could be made on the release data. The PTH stability was certainly affected by its low concentration and the buffers that were not optimal.
The release experiment was repeated by using a stabilizing buffer containing 50 mM mannitol in a 10 mM sodium acetate buffer. In addition, the buffer was exchanged every 2 days in order to prevent any degradation of peptide. […] The concentration of PTH or TGPTH in the buffer in case of a total release would be 100 μg/mL fibrin matrix (200 times more than before). […] Samples were collected every 2 to 4 days (with a change of buffer) during 2 weeks and analysed by direct ELISA. […]

[2] = test system: acute, open tibial shaft fractures; assay: Phase II clinical study of I-040202 in tibial shaft fractures; format: in vivo, patients; conditions: Intent-to-Treat
Source text: This was a Phase II, prospective, randomized, controlled, open-label (dose-blinded), parallel-group, multi-center clinical study of the efficacy and safety of TGplPTH1-34 in a matrix made of fibrin (I-040202) in patients with acute, open tibial shaft fractures. The supplemented matrix was applied directly to the fracture site in the form of a paste. A total of 200 patients were randomized and treated in 31 centers across Europe.
The study consisted of four study groups: one control group using standard of care (SoC) which included intramedullary nailing and soft tissue management, and three treatment groups using 4 mL of I-040202 containing TGplPTH1-34 at concentrations of 0.133, 0.4 and 1.0 mg/mL fibrin matrix respectively (different concentrations of TGplPTH1-34), as an adjunct to SoC. Patients followed up clinically and radiologically on a monthly basis until 6 months post-surgery, and thereafter at 9 and 12 months post-surgery.
The primary endpoint was the proportion of patients who had fracture healing at 6 months as assessed by the investigator using radiographic and clinical parameters. Three doses of I-040202 in combination with SoC were compared against SoC alone.

[3] = test system: 1 cm segmental tibial defect; assay: Sheep tibial defect model, supplemented fibrin matrix with TCP granules; format: in vivo
Protocol: The fibrin matrix was formed starting from the TISSEEL® Kit (Baxter AG, CH-8604 Volketswil/ZH) giving 4 mL fibrin matrix. TISSEEL® is produced from human derived pooled plasma and the content of active ingredients may vary from lot to lot within predefined ranges.
Matrix: A supplemented fibrin matrix containing granular material and PTH fusion peptide (TGplPTH1-34) was prepared using 3 separate syringes, a two-way syringe containing fibrin precursor solution and PTH fusion peptide (syringes 1 and 2) and two one-way syringes, one containing water and the other containing granules (syringes 3 and 4).
First the hydroxyapatite/calcium phosphate granules in syringe 4 were wetted by injection of the water of syringe 3. The fibrin precursor solution of syringe 1 (fibrinogen and TGplPTH1-34 suspended in a solution with aprotinin, a serine proteinase inhibitor which helps reduce fibrolysis to retain the integrity of the fibrin matrix) was mixed with the fibrin precursor solution of syringe 2 (thrombin in a calcium chloride solution). TGplPTH1-34 was formulated into the fibrinogen component to give a final concentration in the matrix varying from of 0.1 mg/mL to 10 mg/mL of the fibrin matrix and during the gelation process TGplPTH1-34 became crosslinked to the matrix. Fibrin precursor solutions also contained other components of fibrin matrix, such as plasma fibronectin, Factor XIIIa, plasminogen, and human albumin. When the precursor solutions are in equal volumes, a clotting process occurs to form fibrin. The clotting process takes place over several minutes which allows for the simultaneous injection of the mixed solutions into syringe 4, which contain the wetted granules. The matrix can then be introduced at the site of need where it solidifies. Enough matrix was placed in the defect to completely fill it.
Animals: A total of 42 Swiss Alpine, female sheep ranging between 44-83 kg (mean: 62.8 kg) and 2.25-4.75 years of age were chosen as experimental animals. Seven groups were formed with autografts as positive and fibrin matrix plus TCP granules as negative controls. The other groups consisted of the same fibrin matrix and TCP granules, but differed only in dosage of the TGplPTH1-34. Groups were followed for 12 weeks, when animals were sacrificed at a university-owned slaughter house. All animal experiments were conducted according to the Swiss laws of animal protection and welfare and were authorized by the local Ethical Committee and Veterinary Authorities.
Surgery: A medial approach to the tibia shaft was performed directly above the bone and extending from the distal aspect of the stifle to the hock joint, the medial fascia of the tibia was incised and the medial aspect of the tibia exposed without disturbing the periosteum. A 11 hole, 3.5 mm broad dynamic compression plate (Synthes) was contoured to the shaft with the distal end of the plate ending above the tibiotarsal joint. The plate was fixed to the bone using eleven 3.5 mm screws in a neutral position and distributing five screw holes distally and six proximally to the planned defect. The screws and plate were removed. Thereafter, the defect was marked on the bone with a scalpel blade using a gage ensuring a standardized 1 cm defect between the 5th and 6th screw hole. With an oscillating saw, the defect was cut under constant irrigation and preservation of soft tissues. The 1 cm segment including the circumferential periosteum was carefully removed and local bleeding out of the bone marrow or local soft tissue was stopped applying pressure with a gauze. The plate was repositioned and all screws reinserted before the matrix was filled into the bone gap as described above. Care was taken to distribute the matrix equally underneath the plate, on the lateral and as well as the transcortex.
For the positive autograft control group, autogenic bone was harvested through a local incision directly above the iliac crest. […]

[4] = 1 mg TGplPTH1-34/mL fibrin matrix

Row | Molecule | time stable in buffer [1] [days] | % healed at 6 months (Clinician's assessment) ([2]; 0.133 mg TGplPTH1-34/ml fibrin matrix + SoC) | % healed at 6 months (Clinician's assessment) ([2]; 0.4 mg TGplPTH1-34/ml fibrin matrix + SoC, p = 0.084 vs SoC alone) | % healed at 6 months (Clinician's assessment) ([2]; 1.0 mg TGplPTH1-34/ml fibrin matrix + SoC) | amount of endosteal bone formation (histomorphometry) [3, 4] | rate of granule resorption (histomorphometry) [3, 4] | animals showing bridging ([3]; 1 mg TGplPTH1-34/mL fibrin matrix, 8 weeks) | animals healed showing stable, clinical unions ([3]; 1 mg TGplPTH1-34/mL fibrin matrix, after 12 weeks) [animals] | animals showing bending of the plate ([3]; 1 mg TGplPTH1-34/mL fibrin matrix, within the first four weeks) | periosteal healing compared to negative control material ([3]; 0.4 and 1 mg TGplPTH1-34/mL fibrin matrix) | healing compared to autograft ([3]; 0.4 and 1 mg TGplPTH1-34/mL fibrin matrix, 12 weeks) | animals with unstable fracture site ([3]; 12 weeks, plate removed, movement/torsion of the limb, TGplPTH1-34 at 1 mg/mL fibrin matrix, FIG. 4) | periosteal healing response (radiographs) ([3]; doses between 0.4 and 2 mg TGplPTH1-34/mL fibrin matrix, every time point) | rates of endosteal bone formation and granule resorption ([3]; higher doses of TGplPTH1-34) | stability of the defect at the endpoint ([3]; higher doses than about 1 mg TGplPTH1-34/mL fibrin matrix, 12 weeks)
1 | CC[C@H](C)[C@H](NC(=O)[C@H](CCC(=O)O)NC(=O)[C@H](CO)NC(=O)[C@@H](NC(=O)[C@@H](N)CO)C(C)C)C(=O)N[C@@H](CCC(N)=O)C(=O)N[C@@H](CC(C)C)C(=O)N[C@@H](CCSC)C(=O)N[C@@H](Cc1cnc[nH]1)C(=O)N[C@@H](CC(N)=O)C(=O)N[C@@H](CC(C)C)C(=O)NCC(=O)N[C@@H](CCCCN)C(=O)N[C@@H](Cc1cnc[nH]1)C(=O)N[C@@H](CC(C)C)C(=O)N[C@@H](CC(N)=O)C(=O)N[C@@H](CO)C(=O)N[C@@H](CCSC)C(=O)N[C@@H](CCC(=O)O)C(=O)N[C@@H](CCCN=C(N)N)C(=O)N[C@H](C(=O)N[C@@H](CCC(=O)O)C(=O)N[C@@H](Cc1c[nH]c2ccccc12)C(=O)N[C@@H](CC(C)C)C(=O)N[C@@H](CCCN=C(N)N)C(=O)N[C@@H](CCCCN)C(=O)N[C@@H](CCCCN)C(=O)N[C@@H](CC(C)C)C(=O)N[C@@H](CCC(N)=O)C(=O)N[C@@H](CC(=O)O)C(=O)N[C@H](C(=O)N[C@@H](Cc1cnc[nH]1)C(=O)N[C@@H](CC(N)=O)C(=O)N[C@@H](Cc1ccccc1)C(=O)O)C(C)C)C(C)C [PTH1-34] | ≤ 2 | – | – | – | – | – | – | – | – | – | – | – | – | – | –
2 | NQEQVSPLYKNRSVSEIQLMHNLGKHLNSMERVEWLRKKLQDVHNF (Modified Parathyroid hormone (PHT), comprisig amino acids 1-34 of native PTH as well as a transglutaminase substrate domain and a plasmin-degradable sequence) [TGplPTH1-34] | – | 75.6% (34 of 45) | 80.4%* (37 of 46) | 69.2% (27 of 39) | higher than with the other concentrations of TGplPTH1-34 | highest resorption rate | one | 5 | one | statistically stronger periosteal healing | equivalent to autograft | one | much stronger periosteal healing response | lower rates of both endosteal bone formation and granule resorption | much lower stability
